In patent US20040132666A1, “Administration of free radical scavengers to prevent or treat ischemia-reperfusion injuries” (Oregon Health & Science University, priority 2002, published 2004):

What was measured:
[1] = tested on: middle cerebral artery occlusion; test: Temporary (60 min) middle cerebral artery occlusion and 24 h reperfusion, total infarction volume by TTC staining (Example 2); assay type: in vivo, rat; details: for infarction volume: 60 min occlusion, 24 h reperfusion, mean ± SD
[2] = tested on: brain glutathione levels; details: 10 g/m^2 intraperitoneally twice daily for 3 days; cited from earlier work
[3] = tested on: middle cerebral artery occlusion (MCAO); test: 60 minute transient MCAO in rats, infarcted area on TTC stained brain slices (Example 1); assay type: in vivo, rat
Description: Twenty female Long Evans rats underwent 60 minute transient MCAO. The rats were anesthetized, intubated and mechanically ventilated using 2% Isoflurane, available from Abbott Laboratories, North Chicago, Ill., and oxygen mixture. The left common carotid artery (CCA) and the bifurcation were exposed via midline incision. The branches of the left external carotid artery (ECA) were coagulated, and the ECA stump was mobilized inferiorly, the left pterygopalatine artery was ligated. A blunt tipped 3 cm long segment of a 3-0 monofilament nylon suture, available from Dermalone, United States Surgical, Norwalk, Conn., was introduced into the left internal carotid artery via the left ECA stump, and advanced 2.0-2.2 cm distance from the bifurcation. Then the proximal CCA was ligated temporarily. After the defined occlusion time the animal was re-anesthetized using a mask. The ligation of the CCA was released, and the suture was pulled back and removed allowing reperfusion of the occluded segment. […] The animals were sacrificed 24 h later with intracardiac injection of Pentobarbital. […] The pictures were analyzed using the Scion Image for Windows software (based on NIH Image Software for Macintosh). The non-stained area was outlined, and the area was calculated, as a percentage of the stroked hemisphere. Data were analyzed and graphed using Microsoft Excel Software. […]

[4] = rat, in vivo, iv, 1000 mg/kg
[5] = Serum NAC concentration in rats 5 min post infusion
[6] = tested on: ischemia-reperfusion injuries; test: Single high dose versus multiple low doses of NAC against ischemia-reperfusion injuries; details: single high dose (400-1000 mg/kg) versus multiple low doses

SMILES	infarction volume in comparison to other groups ([1]; 3 days of BSO pretreatment)	reduction of brain glutathione levels [2]	infarction versus control group ([3]; 400 mg/kg i.v. 30 min before occlusion, slices 10 and 12 mm from frontal pole, significant only in last slice)	infarcted area smaller than in control group (mean) ([3]; 400 mg/kg i.v. over 15 min starting 30 min before occlusion, slices 6 and 8 mm from frontal pole, 24 h after 60 min MCAO)	hematocrit after infusion (from 50%) ([1]; 2500 μl volume intravenous injection in 5 minutes, same for saline)	infarction volume ([1]; Series A: 400 mg/kg i.v. -60 min to MCAO)	average reduction of total calculated infarction volume versus saline treated group ([1]; Series A: NAC 60 minutes before occlusion)	infarction volume ([1]; Series B: 400 mg/kg i.v. -30 min to MCAO)	average protection versus saline ([1]; Series B: NAC 30 minutes before occlusion)	infarction volume ([1]; Series C: 400 mg/kg i.v. at reperfusion (2 min after))	total volume of infarction versus saline treated group ([1]; Series C: NAC after reperfusion, p=0.84)	protection in comparison to saline controls ([1]; Series D: BSO treated, glutathione depleted animals, p=0.72)	toxicity [4]	transient decrease of mean arterial blood pressure (Long-Evans, rat, in vivo, iv)	morbidity or mortality (stroke animals, intravenous 400 mg NAC in 5 min infusion)	serum NAC concentration ([5]; 400 mg/kg)	serum NAC concentration ([5]; 1000 mg/kg)	serum NAC concentration ([5]; about 140 mg/kg)	effectiveness in preventing or treating ischemia-reperfusion injuries [6]
CCCCS(=N)(=O)CCC(N)C(=O)O [BSO, L-buthionine-[S,R]-sulfoxamine]	did not result in higher infarction volume	at least 50%	–	–	–	–	–	–	–	–	–	–	–	–	–	–	–	–	–
CC(=O)N[C@@H](CS)C(=O)O [NAC, N-acetylcysteine]	–	–	the infarction was smaller	38%	30%	143.40 ± 72 mm3	43%	176.60 ± 69 mm3	34%	156.41 ± 27 mm3	the difference was not significant	failed to provide significant protection	No toxicity was observed	10%	did not cause significant morbidity or mortality	about 1.5 mM	~10 mM	0.1 to 0.3 mM	more effective
